Drawing on PubChem BioAssay AID248 (DTP/NCI, 2004), this text covers T/C for 17 compounds.

Several values for one entry are separate records, joined by “and”; a condition that tells them apart may be missing. Equal entries are not always repeated. Inconclusive results and toxic doses are left out.

The test has as its system L1210 leukemia ip in BDF1 mice, survival T/C. Kind of test: NCI In Vivo Anticancer Drug Screen. Data for tumor model L1210 Leukemia (intraperitoneal) in B6D2F1 (BDF1) mice. Particulars: endpoint: mean survival time, higher = longer survival. Summed up:
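Transplantable tumor model; survival measured in treated vs vehicle control mice. Value = treated/control.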

The mark [1] stands for this setting: dose: 100.0 mg/kg/injection, schedule: Q01DX009 (ip), vehicle: Klucel (hydroxypropylcellulose) (HPC).
The mark [2] stands for this setting: dose: 100.0 mg/kg/injection, schedule: Q04DX003 (ip), vehicle: Klucel (hydroxypropylcellulose) (HPC).
[3] abbreviates: dose: 200.0 mg/kg/injection, schedule: Q01DX009 (ip), vehicle: Klucel (hydroxypropylcellulose) (HPC).
Setting [4] is: dose: 200.0 mg/kg/injection, schedule: Q04DX003 (ip), vehicle: Klucel (hydroxypropylcellulose) (HPC).
Setting [5] is: dose: 400.0 mg/kg/injection, schedule: Q01DX009 (ip), vehicle: Klucel (hydroxypropylcellulose) (HPC).
The mark [6] stands for this setting: dose: 400.0 mg/kg/injection, schedule: Q04DX003 (ip), vehicle: Klucel (hydroxypropylcellulose) (HPC).
Setting [7] is: dose: 100.0 mg/kg/injection, schedule: Q01DX001 (ip), vehicle: saline.
[8] abbreviates: dose: 200.0 mg/kg/injection, schedule: Q01DX001 (ip), vehicle: saline.
[9] abbreviates: dose: 100.0 mg/kg/injection, schedule: Q04DX003 (ip), vehicle: saline.
Where [10] appears, read: dose: 400.0 mg/kg/injection, schedule: Q04DX002 (ip), vehicle: saline with Tween-80.

On to `COC(=O)CCNCc1ccccc1`, for which the T/C reads like this: under setting [1], 103 % of control; under setting [2], 106 % of control; under setting [3], 99 % of control; under setting [4], 98 % of control; under setting [5], 99 % of control; under setting [6], 103 % of control.

For the compound `FC1(F)SC2c3cccc4cccc(c34)C2C1(F)F` (stereo not given), the T/C (dose: 100.0 mg/kg/injection, schedule: Q01DX009 (ip), vehicle: saline with Tween-80) was 102 % of control; the T/C (dose: 200.0 mg/kg/injection, schedule: Q01DX009 (ip), vehicle: saline with Tween-80) was 104 % of control; the T/C (dose: 400.0 mg/kg/injection, schedule: Q01DX009 (ip), vehicle: saline with Tween-80) is 96 % of control.

For `CN(C(=O)Oc1ccccc1)c1ccc(S(=O)(=O)F)cc1`, the T/C reads like this: (dose: 100.0 mg/kg/injection, schedule: Q01DX001 (ip), vehicle: saline with Tween-80) 104 % of control; (dose: 200.0 mg/kg/injection, schedule: Q01DX001 (ip), vehicle: saline with Tween-80) 96 % of control; (dose: 400.0 mg/kg/injection, schedule: Q01DX001 (ip), vehicle: saline with Tween-80) 98 % of control.

Regarding `O=C(O)c1cccc(Br)c1[N+](=O)[O-]`, the T/C runs as follows: under setting [7], 97 % of control; under setting [8], 101 % of control.

Take `COC(=O)C1(N)CCCC1`: the T/C runs as follows: (dose: 11.0 mg/kg/injection, schedule: Q01DX Z (ip), vehicle: carboxymethylcellulose (CMC)) 94 % of control; (dose: 22.0 mg/kg/injection, schedule: Q01DX Z (ip), vehicle: carboxymethylcellulose (CMC)) 107 % of control; (dose: 25.0 mg/kg/injection, schedule: Q01DX009 (ip), vehicle: saline) 107 % of control; (dose: 30.0 mg/kg/injection, schedule: Q01DX009 (ip), vehicle: saline) 108 % of control; (dose: 30.0 mg/kg/injection, schedule: Q01DX Z (ip), vehicle: saline) 116 % of control; (dose: 44.0 mg/kg/injection, schedule: Q01DX009 (ip), vehicle: saline) 121 % of control. Also, the T/C runs as follows: (dose: 45.0 mg/kg/injection, schedule: Q01DX Z (ip), vehicle: saline) 118 % of control; (dose: 50.0 mg/kg/injection, schedule: Q01DX009 (ip), vehicle: saline) 109 % of control; under setting [1], 95 % of control; under setting [2], 104 % of control and 113 % of control; under setting [9], 102 % of control; (dose: 150.0 mg/kg/injection, schedule: Q01DX009 (ip), vehicle: saline) 95 % of control. Besides, the T/C was 104 % of control (dose: 150.0 mg/kg/injection, schedule: Q01DX Z (ip), vehicle: saline); 104 % of control under setting [3]; 119 % of control and 120 % of control (dose: 200.0 mg/kg/injection, schedule: Q01DX009 (ip), vehicle: saline); 121 % of control and 124 % of control under setting [4]; 118 % of control (dose: 200.0 mg/kg/injection, schedule: Q04DX003 (ip), vehicle: saline); 105 % of control and 115 % of control (dose: 300.0 mg/kg/injection, schedule: Q01DX Z (ip), vehicle: carboxymethylcellulose (CMC)). Besides, the T/C runs as follows: under setting [5], 121 % of control; (dose: 400.0 mg/kg/injection, schedule: Q01DX009 (ip), vehicle: saline) 98 % of control and 102 % of control; (dose: 400.0 mg/kg/injection, schedule: Q01DX Z (ip), vehicle: carboxymethylcellulose (CMC)) 113 % of control; (dose: 400.0 mg/kg/injection, schedule: Q04DX003 (ip), vehicle: saline) 152 % of control; (dose: 500.0 mg/kg/injection, schedule: Q01DX Z (ip), vehicle: carboxymethylcellulose (CMC)) 110 % of control.

As to `Cc1cc(N(CCCl)CCCl)ccc1C=NCCCCN=Cc1ccc(N(CCCl)CCCl)cc1C`, the T/C (dose: 50.0 mg/kg/injection, schedule: Q01DX001 (ip), vehicle: carboxymethylcellulose (CMC)) was 104 % of control; the T/C (dose: 100.0 mg/kg/injection, schedule: Q01DX001 (ip), vehicle: carboxymethylcellulose (CMC)) is 106 % of control; the T/C (dose: 200.0 mg/kg/injection, schedule: Q01DX001 (ip), vehicle: carboxymethylcellulose (CMC)) was 101 % of control; the T/C (dose: 400.0 mg/kg/injection, schedule: Q01DX001 (ip), vehicle: carboxymethylcellulose (CMC)) was 101 % of control.

As for `Cc1cc(C)c2[nH]c(=O)cc(C)c2c1`, the T/C is 97 % of control and 98 % of control (dose: 100.0 mg/kg/injection, schedule: Q01DX001 (ip), vehicle: other); 97 % of control and 95 % of control (dose: 200.0 mg/kg/injection, schedule: Q01DX001 (ip), vehicle: other); 108 % of control and 95 % of control (dose: 400.0 mg/kg/injection, schedule: Q01DX001 (ip), vehicle: other).

Consider `CC12CC3(C)CC(C)(C1)CC(NC(=O)N(CCF)N=O)(C2)C3`, for which the T/C is 113 % of control (dose: 30.0 mg/kg/injection, schedule: Q01DX001 (ip), vehicle: other); 117 % of control (dose: 40.0 mg/kg/injection, schedule: Q01DX001 (ip), vehicle: other); 151 % of control (dose: 187.0 mg/kg/injection, schedule: Q01DX001 (ip), vehicle: other); 87 % of control (dose: 375.0 mg/kg/injection, schedule: Q01DX001 (ip), vehicle: other).

Consider `Cc1ccc(S(=O)(=O)N/N=C/C=C/c2ccccc2)cc1`, for which the T/C (dose: 100.0 mg/kg/injection, schedule: Q04DX002 (ip), vehicle: saline with Tween-80) was 103 % of control; the T/C (dose: 200.0 mg/kg/injection, schedule: Q04DX002 (ip), vehicle: saline with Tween-80) was 93 % of control; the T/C under setting [10] was 93 % of control.

As for `Nc1cc2ccc(O)cc2c2ccccc12`, the T/C is 109 % of control (dose: 25.6 mg/kg/injection, schedule: Q04DX002 (ip), vehicle: saline with Tween-80); 91 % of control (dose: 64.0 mg/kg/injection, schedule: Q04DX002 (ip), vehicle: saline with Tween-80); 94 % of control (dose: 160.0 mg/kg/injection, schedule: Q04DX002 (ip), vehicle: saline with Tween-80); 102 % of control under setting [10].

For `COC1CN(C(C)(C)C)C1`, the T/C under setting [9] was 103 % of control.

Take `O=c1/c(=C\c2ccccc2)sc2n1CCN=2`: the T/C reads like this: under setting [7], 89 % of control; under setting [8], 92 % of control; (dose: 400.0 mg/kg/injection, schedule: Q01DX001 (ip), vehicle: saline) 101 % of control.

As to `CCCCCc1ccc2oc(=O)c3ccc(C)cc3c2c1O`, the T/C is, setting by setting: under setting [1], 90 % of control; under setting [2], 97 % of control; under setting [3], 93 % of control; under setting [4], 98 % of control; under setting [5], 97 % of control; under setting [6], 97 % of control.

Take `C=CC[n+]1ccccc1C(c1ccccc1)c1ccccc1`: the T/C is 108 % of control (dose: 6.25 mg/kg/injection, schedule: Q01DX009 (ip), vehicle: saline with Tween-80); 97 % of control (dose: 12.5 mg/kg/injection, schedule: Q01DX009 (ip), vehicle: saline with Tween-80); 95 % of control (dose: 12.5 mg/kg/injection, schedule: Q04DX003 (ip), vehicle: saline with Tween-80); 92 % of control (dose: 25.0 mg/kg/injection, schedule: Q01DX009 (ip), vehicle: saline with Tween-80); 103 % of control (dose: 25.0 mg/kg/injection, schedule: Q04DX003 (ip), vehicle: saline with Tween-80).

On to `O=C(N/N=C/c1ccc2c(c1)CCC2)c1ccccc1`, for which the T/C is 92 % of control (dose: 100.0 mg/kg/injection, schedule: Q04DX003 (ip), vehicle: saline with Tween-80); 90 % of control (dose: 200.0 mg/kg/injection, schedule: Q04DX003 (ip), vehicle: saline with Tween-80); 88 % of control (dose: 400.0 mg/kg/injection, schedule: Q04DX003 (ip), vehicle: saline with Tween-80).

Turning to `CCC(C)C(C(=O)OCCN(CC)CC)c1ccccc1` (stereo not given), the T/C was 95 % of control (dose: 50.0 mg/kg/injection, schedule: Q01DX009 (ip), vehicle: Klucel (hydroxypropylcellulose) (HPC)); 97 % of control under setting [1]; 96 % of control under setting [2]; 104 % of control under setting [3]; 91 % of control under setting [4].

`O=[N+]([O-])c1cc(S(=O)(=O)F)cc(Cl)c1S`: the T/C is 98 % of control under setting [2] and 102 % of control under setting [4].
